Measurements from patent US10039759B2, “Quinolines as FGFR kinase modulators” (priority 2011, dated 2018).

Key:
[1] = target: FGFR2 (h) (Homo sapiens, UniProt P21802); test: FGFR2 (enzymatic assay), TR-FRET; format: biochemical; conditions: 0.4 μM ATP, 60 min; pIC50 = -log IC50 (M); average if tested multiple times; read-out: FGFR 2 pIC50 (converted)
[2] = target: FGFR3 (h) (Homo sapiens, UniProt P22607); test: FGFR3 (enzymatic assay), TR-FRET; format: biochemical; conditions: 25 μM ATP, 60 min; pIC50 = -log IC50 (M); average if tested multiple times; read-out: hFGFR 3 pIC50 (converted)
[3] = target: FGFR4 (h) (Homo sapiens, UniProt P22455); test: FGFR4 (enzymatic assay), TR-FRET; format: biochemical; conditions: FGFR 4 pIC50, 5 μM ATP, 60 min; pIC50 = -log IC50 (M); average if tested multiple times
Sequence of FGFR4 (h) (P22455 22-802): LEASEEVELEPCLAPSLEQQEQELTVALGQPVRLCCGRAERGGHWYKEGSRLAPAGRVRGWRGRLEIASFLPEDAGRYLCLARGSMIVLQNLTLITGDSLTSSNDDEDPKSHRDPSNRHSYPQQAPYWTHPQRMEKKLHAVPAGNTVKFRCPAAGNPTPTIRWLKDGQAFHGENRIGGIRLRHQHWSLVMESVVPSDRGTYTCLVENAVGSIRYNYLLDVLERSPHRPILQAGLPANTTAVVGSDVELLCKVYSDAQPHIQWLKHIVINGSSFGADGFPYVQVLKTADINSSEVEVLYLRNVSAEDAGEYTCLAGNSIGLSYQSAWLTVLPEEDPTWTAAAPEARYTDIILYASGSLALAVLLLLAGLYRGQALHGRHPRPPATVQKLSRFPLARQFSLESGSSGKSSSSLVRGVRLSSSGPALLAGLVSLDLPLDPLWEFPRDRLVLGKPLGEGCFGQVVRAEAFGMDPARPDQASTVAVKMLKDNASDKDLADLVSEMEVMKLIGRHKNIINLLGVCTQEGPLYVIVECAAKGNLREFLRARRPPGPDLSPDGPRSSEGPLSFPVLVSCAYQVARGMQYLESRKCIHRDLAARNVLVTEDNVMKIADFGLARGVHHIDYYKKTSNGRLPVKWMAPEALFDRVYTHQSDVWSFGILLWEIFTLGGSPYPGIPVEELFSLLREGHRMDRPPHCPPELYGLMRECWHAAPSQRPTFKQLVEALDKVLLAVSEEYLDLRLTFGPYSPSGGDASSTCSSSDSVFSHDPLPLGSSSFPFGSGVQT

[4] = target: KDR (h) (Homo sapiens, UniProt P35968); test: KDR (VEGFR2) (enzymatic assay), TR-FRET; format: biochemical; conditions: 3 μM ATP, 120 min; pIC50 = -log IC50 (M); average if tested multiple times; read-out: VEGFR KDR pIC50 (converted)
Sequence of KDR (h) (P35968 20-1356): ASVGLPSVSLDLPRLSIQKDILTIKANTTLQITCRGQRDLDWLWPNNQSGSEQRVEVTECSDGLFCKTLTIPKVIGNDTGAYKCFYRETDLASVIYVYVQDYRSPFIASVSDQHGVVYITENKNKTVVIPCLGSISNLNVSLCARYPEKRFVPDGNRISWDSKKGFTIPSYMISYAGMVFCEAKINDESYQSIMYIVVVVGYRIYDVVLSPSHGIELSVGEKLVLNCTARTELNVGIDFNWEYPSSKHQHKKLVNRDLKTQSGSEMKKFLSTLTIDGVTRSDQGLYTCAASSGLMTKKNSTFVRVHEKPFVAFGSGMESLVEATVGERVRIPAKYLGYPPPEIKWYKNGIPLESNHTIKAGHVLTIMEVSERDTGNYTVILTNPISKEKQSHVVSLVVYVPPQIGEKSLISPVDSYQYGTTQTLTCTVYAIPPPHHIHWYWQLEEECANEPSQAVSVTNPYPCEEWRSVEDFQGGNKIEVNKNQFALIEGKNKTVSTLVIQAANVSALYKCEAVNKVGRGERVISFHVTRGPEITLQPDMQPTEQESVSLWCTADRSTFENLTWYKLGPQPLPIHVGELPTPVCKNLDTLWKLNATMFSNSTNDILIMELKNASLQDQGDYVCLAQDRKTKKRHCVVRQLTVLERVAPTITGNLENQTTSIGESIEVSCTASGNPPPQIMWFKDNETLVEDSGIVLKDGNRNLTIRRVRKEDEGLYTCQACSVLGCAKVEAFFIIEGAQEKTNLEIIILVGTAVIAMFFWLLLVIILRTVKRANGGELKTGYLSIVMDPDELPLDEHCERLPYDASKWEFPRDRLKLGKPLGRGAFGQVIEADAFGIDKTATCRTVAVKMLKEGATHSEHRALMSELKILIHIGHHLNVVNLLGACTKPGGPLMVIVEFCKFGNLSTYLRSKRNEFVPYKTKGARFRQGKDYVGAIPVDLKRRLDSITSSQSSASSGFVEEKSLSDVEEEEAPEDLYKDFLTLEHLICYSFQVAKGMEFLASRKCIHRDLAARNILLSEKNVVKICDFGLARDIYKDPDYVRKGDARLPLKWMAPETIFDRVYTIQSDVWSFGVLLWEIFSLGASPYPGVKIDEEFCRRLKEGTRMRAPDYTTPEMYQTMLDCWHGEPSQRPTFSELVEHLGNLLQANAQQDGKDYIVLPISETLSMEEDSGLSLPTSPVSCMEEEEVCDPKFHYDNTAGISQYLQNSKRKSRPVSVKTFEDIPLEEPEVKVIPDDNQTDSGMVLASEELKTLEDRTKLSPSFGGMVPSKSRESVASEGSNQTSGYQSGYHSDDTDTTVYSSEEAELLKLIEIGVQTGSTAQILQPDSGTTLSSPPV
Protocol: KDR (VEGFR2) (Enzymatic Assay)
In a final reaction volume of 30 μL, KDR (h) (150 ng/ml) was incubated with 50 mM HEPES pH 7.5, 6 mM MnCl2, 1 mM DTT, 0.1 mM Na3VO4, 0.01% Triton-X-100, 500 nM Btn-Flt3 and 3 μM ATP in the presence of compound (1% DMSO final). After incubation for 120 minutes at room temperature the reaction was stopped with 2.27 nM EU-anti P-Tyr, 7 mM EDTA, 31.25 nM SA-XL-665 and 0.02% BSA which was present for 60 minutes at room temperature. Time-Resolved Fluorescence Resonance Energy Transfer (TR-FRET) signal (ex340 nm. Em 620 nm, em 655 nm) was measured afterwards and results are expressed in RFU (Relative Fluorescence Units). In this assay, the inhibitory effect of different compound concentrations (range 10 μM to 0.1 nM) was determined and used to calculate an IC50 (M) and pIC50 (−log IC50) value.

[5] = target: FGFR1 (h) (Homo sapiens, UniProt P11362); test: FGFR1 (enzymatic assay), TR-FRET; format: biochemical; conditions: FGFR 1 pIC50, 5 μM ATP, 60 min; pIC50 = -log IC50 (M); average if tested multiple times
[6] = target: T1, Ba/F3-FGFR1-transfected cells (Homo sapiens, UniProt P11362, cells depend on it, form not given); test: Ba/F3-FGFR1 (minus IL3 or plus IL3) cellular proliferation assay, Alamar Blue; format: cell-based; conditions: minus IL3, 24 hours
T1 construct: other: minus IL3; 24 hours, Alamar Blue
T1 sequence (P11362 whole entry, change not shown): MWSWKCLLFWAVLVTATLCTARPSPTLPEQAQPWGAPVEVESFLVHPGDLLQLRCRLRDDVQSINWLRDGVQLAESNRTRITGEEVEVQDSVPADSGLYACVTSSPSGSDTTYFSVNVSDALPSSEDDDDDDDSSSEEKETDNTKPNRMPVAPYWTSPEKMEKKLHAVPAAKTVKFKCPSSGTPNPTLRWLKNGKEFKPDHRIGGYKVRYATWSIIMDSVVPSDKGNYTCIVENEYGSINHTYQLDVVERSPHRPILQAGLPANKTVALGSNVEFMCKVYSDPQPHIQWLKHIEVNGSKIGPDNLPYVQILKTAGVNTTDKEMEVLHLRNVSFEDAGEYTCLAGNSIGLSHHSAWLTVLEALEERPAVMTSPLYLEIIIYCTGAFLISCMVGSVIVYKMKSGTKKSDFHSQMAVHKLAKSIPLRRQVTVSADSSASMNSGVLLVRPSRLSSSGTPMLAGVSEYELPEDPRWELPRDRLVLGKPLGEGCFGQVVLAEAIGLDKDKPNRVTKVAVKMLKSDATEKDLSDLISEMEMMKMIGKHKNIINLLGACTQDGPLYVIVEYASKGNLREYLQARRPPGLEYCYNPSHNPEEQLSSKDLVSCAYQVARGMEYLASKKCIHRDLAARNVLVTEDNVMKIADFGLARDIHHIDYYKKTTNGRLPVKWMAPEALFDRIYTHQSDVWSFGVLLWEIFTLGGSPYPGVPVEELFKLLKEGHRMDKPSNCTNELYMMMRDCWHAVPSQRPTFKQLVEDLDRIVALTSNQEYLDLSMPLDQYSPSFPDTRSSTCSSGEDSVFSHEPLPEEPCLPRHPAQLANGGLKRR
Protocol: Ba/F3-FGFR1 (Minus IL3 or Plus IL3) (Cellular Proliferation Assay)
(§1) In a 384 well plate, 100 nl of compound dilution in DMSO was sprayed before adding 50 μl cell culture medium (phenol red free RPMI-1640, 10% FBS, 2 mM L-Glutamine and 50 μg/ml Gentamycin) containing 20000 cells per well of Ba/F3-FGFR1-transfected cells. Cells were put in an incubator at 37° C. and 5% CO2. After 24 hours, 10 μl of Alamar Blue solution (0.5 mM K3Fe(CN)6, 0.5 mM K4Fe(CN)6, 0.15 mM Resazurin and 100 mM Phosphate Buffer) was added to the wells, incubated for 4 hours at 37° C. and 5% CO2 before RFU's (Relative Fluorescence Units) (ex. 540 nm., em. 590 nm.) were measured in a fluorescence plate reader.
(§2) In this assay, the inhibitory effect of different compound concentrations (range 10 μM to 0.1 nM) was determined and used to calculate an IC50 (M) and pIC50 (−log IC50) value. As a counterscreen the same experiment was performed in the presence of 10 ng/ml murine IL3.

[7] = target: T2, Ba/F3-FGFR3-transfected cells (Homo sapiens, UniProt P22607, cells depend on it, form not given); test: Ba/F3-FGFR3 (minus IL3 or plus IL3) cellular proliferation assay, Alamar Blue; format: cell-based; conditions: minus IL3; 24 hours, Alamar Blue
T2 construct: BAF3-FGFR3 (MIN IL3 Alamar Blue- pIC50); other: minus IL3; 24 hours, Alamar Blue
Protocol: (§3) Ba/F3-FGFR3 (Minus IL3 or Plus IL3) (Cellular Proliferation Assay)
as §1, with “Ba/F3-FGFR3-transfected” for “Ba/F3-FGFR1-transfected”
as §2

[8] = target: T3, Ba/F3-KDR-transfected cells (Homo sapiens, UniProt P35968, cells depend on it, form not given); test: Ba/F3-KDR (minus IL3 or plus IL3) cellular proliferation assay, Alamar Blue; format: cell-based; conditions: minus IL3; 24 hours, Alamar Blue
T3 construct: BAF3-KDR (MIN IL3 Alamar Blue pIC50); other: minus IL3; 24 hours, Alamar Blue
T3 sequence (P35968 whole entry, change not shown): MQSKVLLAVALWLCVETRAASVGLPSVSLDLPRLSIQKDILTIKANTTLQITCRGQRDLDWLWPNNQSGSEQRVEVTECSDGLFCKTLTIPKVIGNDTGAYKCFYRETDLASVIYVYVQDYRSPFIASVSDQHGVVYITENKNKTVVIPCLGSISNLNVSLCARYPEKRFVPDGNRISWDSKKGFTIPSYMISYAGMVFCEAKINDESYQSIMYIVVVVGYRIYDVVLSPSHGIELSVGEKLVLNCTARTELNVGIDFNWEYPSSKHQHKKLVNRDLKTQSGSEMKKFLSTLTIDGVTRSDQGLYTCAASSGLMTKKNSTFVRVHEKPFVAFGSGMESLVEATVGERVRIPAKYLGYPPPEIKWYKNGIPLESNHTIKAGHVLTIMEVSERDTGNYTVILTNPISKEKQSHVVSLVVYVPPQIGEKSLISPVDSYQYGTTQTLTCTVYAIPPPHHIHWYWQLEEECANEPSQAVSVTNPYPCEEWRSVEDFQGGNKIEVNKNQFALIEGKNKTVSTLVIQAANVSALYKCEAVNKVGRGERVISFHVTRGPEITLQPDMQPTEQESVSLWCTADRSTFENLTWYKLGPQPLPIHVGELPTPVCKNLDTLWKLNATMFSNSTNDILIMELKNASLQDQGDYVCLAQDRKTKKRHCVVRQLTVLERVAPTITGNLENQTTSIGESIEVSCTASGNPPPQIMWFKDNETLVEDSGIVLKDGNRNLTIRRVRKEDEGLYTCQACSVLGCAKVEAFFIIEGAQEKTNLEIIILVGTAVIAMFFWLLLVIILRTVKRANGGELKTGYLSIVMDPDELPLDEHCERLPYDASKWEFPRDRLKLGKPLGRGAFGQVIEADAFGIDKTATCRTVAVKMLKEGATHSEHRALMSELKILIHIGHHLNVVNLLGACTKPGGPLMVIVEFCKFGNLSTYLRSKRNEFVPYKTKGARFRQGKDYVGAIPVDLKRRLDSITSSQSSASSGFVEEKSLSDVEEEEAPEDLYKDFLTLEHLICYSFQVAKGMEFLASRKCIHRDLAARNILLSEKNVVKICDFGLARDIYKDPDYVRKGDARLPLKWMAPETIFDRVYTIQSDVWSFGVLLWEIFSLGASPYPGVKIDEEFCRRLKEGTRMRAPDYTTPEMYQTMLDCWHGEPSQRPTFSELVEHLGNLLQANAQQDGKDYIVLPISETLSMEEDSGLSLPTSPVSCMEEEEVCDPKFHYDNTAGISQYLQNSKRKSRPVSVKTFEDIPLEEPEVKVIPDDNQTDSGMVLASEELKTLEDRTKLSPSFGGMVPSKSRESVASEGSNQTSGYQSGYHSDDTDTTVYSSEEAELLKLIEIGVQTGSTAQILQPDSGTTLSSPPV
Protocol: (§4) Ba/F3-KDR (Minus IL3 or Plus IL3) (Cellular Proliferation Assay)
as §1, with “Ba/F3-KDR-transfected” for “Ba/F3-FGFR1-transfected”
as §2

[9] = target: Ba/F3-FGFR4-transfected cells (Homo sapiens, UniProt P22455); test: Ba/F3-FGFR4 cellular proliferation assay, Alamar Blue; format: cell-based; conditions: 24 hours
Protocol: Ba/F3-FGFR4 (Cellular Proliferation Assay)
as §1, with “Ba/F3-FGFR4-transfected” for “Ba/F3-FGFR1-transfected”
In this assay, the inhibitory effect of different compound concentrations (range 10 μM to 0.1 nM) was determined and used to calculate an IC50 (M) and pIC50 (−log IC50) value.

[10] = system: Ba/F3-FGFR3-transfected cells; test: Ba/F3-FGFR3 (minus IL3 or plus IL3) cellular proliferation assay, Alamar Blue; format: cell-based; conditions: plus IL3 (10 ng/ml murine IL3, counterscreen); 24 hours, Alamar Blue; read-out: BAF3-FGFR3 (PLUS IL3 Alamar Blue pIC50) (converted)
Protocol: as §3
as §1, with “Ba/F3-FGFR3-transfected” for “Ba/F3-FGFR1-transfected”
as §2

[11] = system: Ba/F3-KDR-transfected cells; test: Ba/F3-KDR (minus IL3 or plus IL3) cellular proliferation assay, Alamar Blue; format: cell-based; conditions: plus IL3 (10 ng/ml murine IL3, counterscreen); 24 hours, Alamar Blue; read-out: BAF3-KDR (PLUS IL3 Alamar Blue pIC50) (converted)
Protocol: as §4
as §1, with “Ba/F3-KDR-transfected” for “Ba/F3-FGFR1-transfected”
as §2

Sequence of FGFR2 (h) (P21802 22-821): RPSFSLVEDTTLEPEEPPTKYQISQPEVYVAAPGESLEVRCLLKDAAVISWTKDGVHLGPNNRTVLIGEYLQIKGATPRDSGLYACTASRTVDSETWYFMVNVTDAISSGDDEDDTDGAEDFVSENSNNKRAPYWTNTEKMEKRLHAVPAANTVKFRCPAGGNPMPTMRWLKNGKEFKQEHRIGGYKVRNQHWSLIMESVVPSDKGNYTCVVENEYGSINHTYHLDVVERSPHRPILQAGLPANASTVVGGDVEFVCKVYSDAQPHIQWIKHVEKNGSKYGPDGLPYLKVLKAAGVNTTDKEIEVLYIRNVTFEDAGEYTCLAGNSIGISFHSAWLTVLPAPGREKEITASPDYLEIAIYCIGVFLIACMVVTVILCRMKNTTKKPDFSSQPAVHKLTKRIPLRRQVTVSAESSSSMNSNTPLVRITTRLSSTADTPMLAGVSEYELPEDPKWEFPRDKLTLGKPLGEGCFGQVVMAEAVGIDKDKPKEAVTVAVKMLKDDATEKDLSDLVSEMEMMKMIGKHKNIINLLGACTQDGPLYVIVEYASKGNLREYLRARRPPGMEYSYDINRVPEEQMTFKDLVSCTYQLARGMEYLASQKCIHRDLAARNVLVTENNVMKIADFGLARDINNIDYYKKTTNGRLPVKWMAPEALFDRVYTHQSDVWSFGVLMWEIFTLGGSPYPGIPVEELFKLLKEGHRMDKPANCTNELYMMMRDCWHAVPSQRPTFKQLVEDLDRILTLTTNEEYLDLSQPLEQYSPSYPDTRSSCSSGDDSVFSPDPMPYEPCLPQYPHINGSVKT

SMILES | IC50 [1] | IC50 [2] | IC50 [3] | IC50 [4] | IC50 [5] | BAF3-FGFR1 (MIN IL3 pIC50) [6] | BAF3-FGFR3 (MIN IL3 Alamar Blue- pIC50) [7] | BAF3-KDR (MIN IL3 Alamar Blue pIC50) [8] | BAF3-FGFR 4 (pIC50) [9] | IC50 [10] | IC50 [11]
COc1cc(OC)cc(C(CCO)c2ccc3ncc(-c4cnn(C)c4)cc3c2)c1 (single isomer, unassigned) [Compound 36] | > 1e-06 M | > 1e-06 M | > 1e-06 M | > 1e-06 M |  |  |  |  |  |  | 
COc1cc(OC)cc(N(CCNC(C)C)c2ccc3ncc(-c4cnn(CCO)c4)cc3c2)c1 [Compound 13] | 6.61e-09 M | 4.9e-09 M | 8.71e-09 M | 1.29e-07 M | 2.51e-09 M | 7.23 | 7 | 5.57 | 6.81 |  | 
COc1cc(OC)cc(/C(=C\C#N)c2ccc3ncc(-c4cnn(C)c4)cc3c2)c1 [Compound 30] | 3.47e-08 M | 2.19e-08 M | 3.02e-07 M | 3.31e-07 M |  | 6.03 | 5.89 | 5.55 | 5.25 |  | 
COc1cc(OC)cc(C(=O)c2ccc3ncc(-c4cnn(C)c4)cc3c2)c1 [Compound 31] | 3.09e-08 M | 1.86e-08 M | 2.57e-07 M | 1.58e-07 M |  | 5.65 | 5.46 | <5 | 5.12 |  | 
COc1cc(OC)cc(C(CC(N)=O)c2ccc3ncc(-c4cnn(C)c4)cc3c2)c1 (stereo not shown) [Compound 40] | 3.02e-07 M | 2.19e-07 M |  | > 1e-06 M | 1.86e-07 M | <5 | 5.08 | <5 | <5 | > 10000 nM | > 10000 nM
COc1cc(OC)cc(C(CCNC(C)C)c2ccc3ncc(-c4cnn(C)c4)cc3c2)c1 (stereo not shown) [Compound 41] | 2.04e-08 M | 3.89e-08 M | 1.66e-07 M | > 1e-06 M |  | 6.43 | 6.30 | <5 | 5.78 | > 10000 nM | > 10000 nM
